Experimental data taken from US20150065575A1, “S100A8/A9 as a Diagnostic Marker and a Therapeutic Target” (Sloan-Kettering Institute for Cancer Research, priority 2012, published 2015).

Legend:
PMN = conditions: similar potencies for both; cited from earlier work
[1] = test system: LM2 and CN34LM1 lung metastatic human breast cancer cell lines; test: Preclinical trial of AC chemotherapy and CXCR2 antagonist in orthotopic lung metastatic breast cancer xenografts; assay type: in vivo, mice
Experimental: Data represent average expression±SEM. n=10-13 mice per group. P values were determined by Student's t-test. *p=0.02, **p=0.007.
Data are average foci per field of view (FOV)±SEM. n=5-10 mice per group. Whiskers represent minimum and maximum values. P values were determined by two-tailed Wilcoxon rank-sum test.
Tumor vessel characteristics and lung metastatic foci size and number were quantified using Metamorph software (Molecular Devices) as previously described (DeNardo et al., 2009; Gupta et al., 2007). In brief, 10 random images at 20× magnification were taken per tumor section stained with CD34, MECA32 or Von Willebrand factor by immunohistochemistry. Images were thresholded, stained area was calculated by counting objects per field and vessel characteristics were analyzed using Metamorph measurement module. For quantitating lung metastatic foci area and number, 8-12 random images at 20× magnification were taken per lung section stained with vimentin by immunohistochemistry. A minimum of 5 sections was analyzed per animal across different depths of the tissue. For quantitation, images were thresholded and number of metastatic foci determined. Metastatic foci was considered if they contained more than 5 cells. Foci were counted and analyzed using Metamorph measurement module. […]

Row | SMILES | CXCL8- and CXCL1-mediated PMN chemotaxis (PMN) | lung metastatic burden ([1]; CXCR2 inhibitor combined with AC chemotherapy) | S100A9 expressing cells (immunostaining) ([1]; CXCR2 inhibitor/chemotherapy treatment)
1 | C[C@@H](C(N)=O)c1ccc(OS(=O)(=O)C(F)(F)F)cc1 [4-[(1R)-2-amino-1-methyl-2-oxoethyl]phenyl trifluoromethane sulfonate] | inhibit | – | –
2 | N#Cc1ccc(NC(=O)Nc2ccccc2Br)c2n[nH]nc12 [CXCR2 inhibitor] | – | markedly reduced | significant reduction
